Laboratory results published in US12325681B2, “Inhibitors of nitric oxide synthases (NOS), pharmaceutical products thereof, and methods thereof” (Gacter Inc., priority 2022, dated 2025).
Where two headings read alike, the source gives them in different places.

What was measured:
iNOS [1] = molecular target: T1, iNOS (Homo sapiens, UniProt P35228); assay: abcam NOS Inhibitor Screening Kit, IC50 (fluorescence); format: biochemical; design: IC50
Method: The IC50 of some compounds of the invention was determined using the abcam NOS Inhibitor Screening Kit. The procedure includes the following steps: (1) Dissolved a test compound to 10 mM in DMSO; (2) Diluted the test compound to 1 mM in NOS Assay Buffer; (3) Diluted 1 mM of the test compound stocks to 200 μM, 50 μM, 12.5 μM, 3.125 μM, 0.781 μM, and 0.195 μM in NOS Assay Buffer; (4) Diluted 1 mM DPI Control to 50.0 μM, 12.5 μM, 3.125 μM, 0.781 μM, 0.195 μM, and 0.0488 μM in NOS Assay Buffer; (5) Diluted NOS enzyme with 400 μL of NOS Assay Buffer; (6) Combined Diluted NOS Enzyme with 1.6 mL of NOS Assay buffer then transferred 20 μL of enzyme solution to all wells of 96-well Fluorescence plate except background wells. Added 20 μL of NOS Assay buffer to background wells. (7) Transferred 10 uL of each test compound dilution to the enzyme buffer mix according to the plate map (see addendum for plate map and raw data values). (8) Incubated 15 minutes at room temperature. (9) Added 11 μL of NOS reaction mix (according to manufacturer's protocol) to each well, mixed, and incubated at 37° C. for 1 hour. […] Measure Fluorescence at 360 nm excitation/450 nm emission.

iNOS [2] = molecular target: T1, iNOS; assay: as above; format: biochemical; design: Fold (GT-xxxx)/AZ 6b; settings: ratio of IC50 to AZ 6b IC50 (0.0488 μM)
Method: (§1) The IC50 of some compounds of the invention was determined using the abcam NOS Inhibitor Screening Kit. The procedure includes the following steps: (1) Dissolved a test compound to 10 mM in DMSO; (2) Diluted the test compound to 1 mM in NOS Assay Buffer; (3) Diluted 1 mM of the test compound stocks to 200 μM, 50 μM, 12.5 μM, 3.125 μM, 0.781 μM, and 0.195 μM in NOS Assay Buffer; (4) Diluted 1 mM DPI Control to 50.0 μM, 12.5 μM, 3.125 μM, 0.781 μM, 0.195 μM, and 0.0488 μM in NOS Assay Buffer; (5) Diluted NOS enzyme with 400 μL of NOS Assay Buffer; (6) Combined Diluted NOS Enzyme with 1.6 mL of NOS Assay buffer then transferred 20 μL of enzyme solution to all wells of 96-well Fluorescence plate except background wells. Added 20 μL of NOS Assay buffer to background wells. (7) Transferred 10 uL of each test compound dilution to the enzyme buffer mix according to the plate map (see addendum for plate map and raw data values). (8) Incubated 15 minutes at room temperature. (9) Added 11 μL of NOS reaction mix (according to manufacturer's protocol) to each well, mixed, and incubated at 37° C. for 1 hour. (10) Added 110 μL of NOS Assay Buffer to each well followed by 5 μL of Enhancer to each well, mixed, and incubated 10 minutes at room temperature; (11) Added 10 μL of Probe to each well, mixed, and incubated 10 minutes at room temperature; and (12) Added 5 μL of NaOH to each well, mixed, and incubated 10 minutes at room temperature. Measure Fluorescence at 360 nm excitation/450 nm emission.

iNOS [3] = molecular target: T1, iNOS; assay: as above; format: biochemical; design: IC50; IC50; settings: abcam NOS Inhibitor Screening Kit
Method: as §1

iNOS [4] = molecular target: T1, iNOS; settings: in words; cited from earlier work
mice = settings: cited from earlier work
rats = settings: cited from earlier work

T1 sequence (P35228 whole entry): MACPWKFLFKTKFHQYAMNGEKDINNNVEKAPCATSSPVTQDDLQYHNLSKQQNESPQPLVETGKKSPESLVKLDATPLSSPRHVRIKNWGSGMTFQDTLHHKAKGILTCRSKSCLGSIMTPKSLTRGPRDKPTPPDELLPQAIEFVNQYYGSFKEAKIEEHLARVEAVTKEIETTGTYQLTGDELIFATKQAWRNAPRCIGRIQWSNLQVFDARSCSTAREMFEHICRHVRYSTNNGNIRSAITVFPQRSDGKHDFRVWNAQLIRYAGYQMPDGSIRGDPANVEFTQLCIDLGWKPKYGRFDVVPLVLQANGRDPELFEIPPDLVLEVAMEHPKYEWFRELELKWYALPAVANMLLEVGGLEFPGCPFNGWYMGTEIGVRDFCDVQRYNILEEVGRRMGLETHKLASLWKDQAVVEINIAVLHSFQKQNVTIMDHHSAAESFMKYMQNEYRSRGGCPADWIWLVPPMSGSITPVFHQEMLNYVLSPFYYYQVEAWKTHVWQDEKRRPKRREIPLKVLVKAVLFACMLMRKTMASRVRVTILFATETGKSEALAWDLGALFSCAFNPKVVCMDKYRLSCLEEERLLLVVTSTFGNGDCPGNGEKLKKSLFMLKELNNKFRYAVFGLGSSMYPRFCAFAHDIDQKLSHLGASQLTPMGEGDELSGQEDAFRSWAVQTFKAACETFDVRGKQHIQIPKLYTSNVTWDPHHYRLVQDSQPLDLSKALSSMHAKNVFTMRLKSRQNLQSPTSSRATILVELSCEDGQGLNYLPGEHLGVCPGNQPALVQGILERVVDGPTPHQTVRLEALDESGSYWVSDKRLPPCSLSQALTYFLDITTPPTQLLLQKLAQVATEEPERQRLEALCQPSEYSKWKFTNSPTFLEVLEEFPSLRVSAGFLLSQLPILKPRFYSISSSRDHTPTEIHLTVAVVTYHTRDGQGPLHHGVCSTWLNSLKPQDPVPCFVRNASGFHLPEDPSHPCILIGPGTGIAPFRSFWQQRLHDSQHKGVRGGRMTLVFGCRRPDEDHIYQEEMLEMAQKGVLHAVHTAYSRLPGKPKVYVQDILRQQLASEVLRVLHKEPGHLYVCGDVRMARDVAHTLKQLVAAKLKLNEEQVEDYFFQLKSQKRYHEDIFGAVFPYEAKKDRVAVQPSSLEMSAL

| IC50 (iNOS [1]) [nM] | Fold (GT-xxxx)/AZ 6b (iNOS [2]) | IC50 (iNOS [3]; Table C-1) [nM] | IC50 (iNOS [3]; Table C-2) [nM] | Structure (SMILES) | selectivity of inhibition iNOS to eNOS (iNOS [4]) | acutely toxic at doses as low as (mice) [mg/kg] | acutely toxic at doses as low as (rats) [mg/kg] |
| --- | --- | --- | --- | --- | --- | --- | --- |
| 48.8 |  |  |  | N#Cc1ccc(Cl)cc1O[C@H](CCN)c1ccccc1 [AZ 6b, (R)-2-(3-amino-1-phenylpropoxy)-4-chlorobenzonitrile, reference compound] |  |  |  |
|  | 5.53 | 270 | 270 | O=C1c2ccccc2C(=O)N1CC[C@@H](Oc1cc(Cl)cc2[nH]ncc12)c1ccccc1 [GT-6066, (R)-2-(3-((6-chloro-1H-indazol-4-yl)oxy)-3-phenylpropyl)isoindoline-1,3-dione] |  |  |  |
|  | 2.30 | 112 | 112 | N#Cc1ccc(Cl)cc1C(=O)N(CCN)c1ccccc1Cl [GT-7002, N-(2-aminoethyl)-5-chloro-N-(2-chlorophenyl)-2-cyanobenzamide] |  |  |  |
|  | 1.31 | 64 | 64 | Cl.N#Cc1ccc(Cl)cc1CN(CCN)c1ccccc1 [GT-7003, 2-(((2-aminoethyl)(phenyl)amino)methyl)-4-chlorobenzonitrile hydrochloride] |  |  |  |
|  | 1.96 | 95.5 | 95.5 | NCCN(C(=O)c1cc(Cl)ccc1Br)c1ccccc1Cl [GT-7007, N-(2-aminoethyl)-2-bromo-5-chloro-N-(2-chlorophenyl) benzamide] |  |  |  |
|  | 3.03 | 148 | 148 | N#Cc1ccc(Cl)cc1C(=O)N(CCNCCO)c1ccccc1 [GT-7009, 5-chloro-2-cyano-N-(2-((2-hydroxyethyl)amino)ethyl)-N-phenylbenzamide] |  |  |  |
|  | 5.94 | 290 | 290 | N#Cc1ccc(Cl)cc1C(=O)N(CCNCCCO)c1ccccc1 [GT-7011, 5-chloro-2-cyano-N-(2-((3-hydroxypropyl)amino)ethyl)-N-phenylbenzamide] |  |  |  |
|  | 8.98 | 438 | 438 | N#Cc1ccc(Cl)cc1C(=O)N(CCNCC1CC1)c1ccccc1 [GT-7019, 5-chloro-2-cyano-N-(2-((cyclopropylmethyl)amino)ethyl)-N-phenyl benzamide] |  |  |  |
|  |  |  |  | N=C(N)SCCc1ccc(CCSC(=N)N)cc1 [PBIT, S,S′-1,4-phenylene-bis(1,2-ethanediyl)bis-isothiourea] | does not exhibit necessary selectivity | 10 | 10 |
